Data reported in the supplement of paper PMC6045584.
± gives the standard deviation of the averaged measurements.

Assays:
BLEOMYCIN = compound: Cc1c(N)nc([C@H](CC(N)=O)NC[C@H](N)C(N)=O)nc1C(=O)N[C@H](C(=O)N[C@H](C)[C@@H](O)[C@H](C)C(=O)N[C@H](C(=O)NCCc1nc(-c2nc(C(=O)NCCC[S+](C)C)cs2)cs1)[C@@H](C)O)[C@@H](OC1OC(CO)C(O)C(O)C1OC1OC(CO)C(O)C(OC(N)=O)C1O)c1cnc[nH]1 [BLEOMYCIN]; assay: surviving fraction relative to DMSO-only wells; higher = less growth inhibition; details: exposure time: 5 days
Summary of the method: (§1)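 Each tumour cell line was screened three times, and only lines with replicate Pearson r >0.7 and median Z' >0.3 were kept. Cells in log phase were seeded at 250–500 per well in 384-well plates, left 24 hours, then exposed continuously for five days to inhibitors at 0.5, 1, 5, 10, 50, 100, 500 and 1000 nM. Viability was read as CellTiter-Glo luminescence, with surviving fraction normalised to the median of DMSO-only wells.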

CABOZANTINIB = compound: COc1cc2nccc(Oc3ccc(NC(=O)C4(C(=O)Nc5ccc(F)cc5)CC4)cc3)c2cc1OC [CABOZANTINIB]; assay: as above; details: exposure time: 5 days
Summary of the method: as §1

IMATINIB = compound: Cc1ccc(NC(=O)c2ccc(CN3CCN(C)CC3)cc2)cc1Nc1nccc(-c2cccnc2)n1 [IMATINIB]; assay: area under dose-response curve of surviving fraction (unscaled, Aref=0) (surviving fraction x log10(nM)); higher = more resistant; details: exposure time: 5 days; dose range 0.5-1000 nM
Summary of the method: (§2)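 Three screens per tumour cell line were run in 384-well plates at eight inhibitor concentrations from 0.5 to 1000 nM over five days. Surviving fractions, from CellTiter-Glo luminescence normalised to DMSO-only wells, were fitted with 3-parameter logistic curves in the drc R package. The reported area under the curve is the unscaled activity area. It spans log10 dose, and Aref is 0.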

[1] = compound: C[C@H](CN(C)C)Oc1nc(Nc2cc3cccc(Cl)c3cn2)cnc1C#N; assay: as above; details: exposure time: 5 days; dose range 0.5-1000 nM
Summary of the method: as §2

BMN-673 = compound: Cn1ncnc1[C@H]1c2n[nH]c(=O)c3cc(F)cc(c23)N[C@@H]1c1ccc(F)cc1 [BMN-673]; assay: as above; details: exposure time: 5 days; dose range 0.5-1000 nM
Summary of the method: as §2

NILOTINIB = compound: Cc1cn(-c2cc(NC(=O)c3ccc(C)c(Nc4nccc(-c5cccnc5)n4)c3)cc(C(F)(F)F)c2)cn1 [NILOTINIB]; assay: as above; details: exposure time: 5 days; dose range 0.5-1000 nM
Summary of the method: as §2

HS57T BREAST
surviving fraction (BLEOMYCIN; 0.5 nM): 0.868 ± 0.026
surviving fraction (BLEOMYCIN; 1 nM): 0.91 ± 0.11
surviving fraction (BLEOMYCIN; 5 nM): 0.9263 ± 0.0091
surviving fraction (BLEOMYCIN; 10 nM): 0.918 ± 0.057
surviving fraction (BLEOMYCIN; 50 nM): 0.842 ± 0.032
surviving fraction (BLEOMYCIN; 100 nM): 0.723 ± 0.034
surviving fraction (BLEOMYCIN; 500 nM): 0.36 ± 0.041
surviving fraction (BLEOMYCIN; 1000 nM): 0.225 ± 0.0065
surviving fraction (CABOZANTINIB; 0.5 nM): 0.884 ± 0.062
surviving fraction (CABOZANTINIB; 1 nM): 0.87 ± 0.07
surviving fraction (CABOZANTINIB; 5 nM): 0.961 ± 0.024
surviving fraction (CABOZANTINIB; 10 nM): 0.983 ± 0.04
surviving fraction (CABOZANTINIB; 50 nM): 1.01 ± 0.037
surviving fraction (CABOZANTINIB; 100 nM): 0.972 ± 0.078
surviving fraction (CABOZANTINIB; 500 nM): 0.894 ± 0.066
surviving fraction (CABOZANTINIB; 1000 nM): 0.888 ± 0.034

G292 BONE
surviving fraction (BLEOMYCIN; 0.5 nM): 0.912 ± 0.048
surviving fraction (BLEOMYCIN; 1 nM): 0.887 ± 0.0095
surviving fraction (BLEOMYCIN; 5 nM): 0.801 ± 0.052
surviving fraction (BLEOMYCIN; 10 nM): 0.741 ± 0.067
surviving fraction (BLEOMYCIN; 50 nM): 0.553 ± 0.027
surviving fraction (BLEOMYCIN; 100 nM): 0.474 ± 0.02
surviving fraction (BLEOMYCIN; 500 nM): 0.315 ± 0.017
surviving fraction (BLEOMYCIN; 1000 nM): 0.276 ± 0.0065
surviving fraction (CABOZANTINIB; 0.5 nM): 0.911 ± 0.047
surviving fraction (CABOZANTINIB; 1 nM): 0.977 ± 0.012
surviving fraction (CABOZANTINIB; 5 nM): 1.02 ± 0.078
surviving fraction (CABOZANTINIB; 10 nM): 1.02 ± 0.046
surviving fraction (CABOZANTINIB; 50 nM): 0.925 ± 0.04
surviving fraction (CABOZANTINIB; 100 nM): 0.876 ± 0.021
surviving fraction (CABOZANTINIB; 500 nM): 0.76 ± 0.035
surviving fraction (CABOZANTINIB; 1000 nM): 0.722 ± 0.024
area under dose-response curve (IMATINIB): 3.31
area under dose-response curve [1]: 3.2
area under dose-response curve (BMN-673): 2.57
area under dose-response curve (NILOTINIB): 3.44

CCK81 LARGE INTESTINE
surviving fraction (CABOZANTINIB; 0.5 nM): 0.691 ± 0.07
surviving fraction (CABOZANTINIB; 1 nM): 0.837 ± 0.062
surviving fraction (CABOZANTINIB; 5 nM): 0.725 ± 0.12
surviving fraction (CABOZANTINIB; 10 nM): 0.764 ± 0.019
surviving fraction (CABOZANTINIB; 50 nM): 0.704 ± 0.073
surviving fraction (CABOZANTINIB; 100 nM): 0.686 ± 0.075
surviving fraction (CABOZANTINIB; 500 nM): 0.718 ± 0.12
surviving fraction (CABOZANTINIB; 1000 nM): 0.743 ± 0.08
area under dose-response curve (IMATINIB): 2.6
area under dose-response curve [1]: 2.09
area under dose-response curve (BMN-673): 2.04
area under dose-response curve (NILOTINIB): 2.58

HMLE3 BREAST
surviving fraction (BLEOMYCIN; 0.5 nM): 0.873 ± 0.098
surviving fraction (BLEOMYCIN; 1 nM): 0.892 ± 0.032
surviving fraction (BLEOMYCIN; 5 nM): 0.858 ± 0.085
surviving fraction (BLEOMYCIN; 10 nM): 0.907 ± 0.046
surviving fraction (BLEOMYCIN; 50 nM): 0.933 ± 0.044
surviving fraction (BLEOMYCIN; 100 nM): 0.967 ± 0.055
surviving fraction (BLEOMYCIN; 500 nM): 0.956 ± 0.042
surviving fraction (BLEOMYCIN; 1000 nM): 0.864 ± 0.064
surviving fraction (CABOZANTINIB; 0.5 nM): 0.925 ± 0.14
surviving fraction (CABOZANTINIB; 1 nM): 0.91 ± 0.032
surviving fraction (CABOZANTINIB; 5 nM): 0.98 ± 0.023
surviving fraction (CABOZANTINIB; 10 nM): 0.942 ± 0.08
surviving fraction (CABOZANTINIB; 50 nM): 0.992 ± 0.07
surviving fraction (CABOZANTINIB; 100 nM): 0.91 ± 0.064
surviving fraction (CABOZANTINIB; 500 nM): 0.72 ± 0.049
surviving fraction (CABOZANTINIB; 1000 nM): 0.656 ± 0.0044
area under dose-response curve (IMATINIB): 3.75
area under dose-response curve (BMN-673): 2.43
area under dose-response curve (NILOTINIB): 3.97

HMT3552 BREAST
surviving fraction (BLEOMYCIN; 0.5 nM): 0.873
surviving fraction (BLEOMYCIN; 1 nM): 0.943
surviving fraction (BLEOMYCIN; 5 nM): 0.9
surviving fraction (BLEOMYCIN; 10 nM): 0.807
surviving fraction (BLEOMYCIN; 50 nM): 0.55
surviving fraction (BLEOMYCIN; 100 nM): 0.299
surviving fraction (BLEOMYCIN; 500 nM): 0.15
surviving fraction (BLEOMYCIN; 1000 nM): 0.182
surviving fraction (CABOZANTINIB; 0.5 nM): 1.12 ± 0.044
surviving fraction (CABOZANTINIB; 1 nM): 1.04 ± 0.012
surviving fraction (CABOZANTINIB; 5 nM): 1.02 ± 0.021
surviving fraction (CABOZANTINIB; 10 nM): 1.03 ± 0.051
surviving fraction (CABOZANTINIB; 50 nM): 1.21 ± 0.067
surviving fraction (CABOZANTINIB; 100 nM): 1.09 ± 0.085
surviving fraction (CABOZANTINIB; 500 nM): 1.01 ± 0.061
surviving fraction (CABOZANTINIB; 1000 nM): 0.988 ± 0.057
area under dose-response curve (IMATINIB): 3.57
area under dose-response curve [1]: 2.82
area under dose-response curve (BMN-673): 2.34
area under dose-response curve (NILOTINIB): 3.47

HCC70 BREAST
surviving fraction (BLEOMYCIN; 0.5 nM): 0.965 ± 0.055
surviving fraction (BLEOMYCIN; 1 nM): 1 ± 0.086
surviving fraction (BLEOMYCIN; 5 nM): 0.935 ± 0.13
surviving fraction (BLEOMYCIN; 10 nM): 0.981 ± 0.026
surviving fraction (BLEOMYCIN; 50 nM): 0.835 ± 0.052
surviving fraction (BLEOMYCIN; 100 nM): 0.746 ± 0.052
surviving fraction (BLEOMYCIN; 500 nM): 0.606 ± 0.097
surviving fraction (BLEOMYCIN; 1000 nM): 0.47 ± 0.076
surviving fraction (CABOZANTINIB; 0.5 nM): 0.985 ± 0.1
surviving fraction (CABOZANTINIB; 1 nM): 1.03 ± 0.048
surviving fraction (CABOZANTINIB; 5 nM): 1.07 ± 0.11
surviving fraction (CABOZANTINIB; 10 nM): 1.09 ± 0.065
surviving fraction (CABOZANTINIB; 50 nM): 1.04 ± 0.14
surviving fraction (CABOZANTINIB; 100 nM): 1.12 ± 0.045
surviving fraction (CABOZANTINIB; 500 nM): 1.09 ± 0.091
surviving fraction (CABOZANTINIB; 1000 nM): 0.99 ± 0.051
area under dose-response curve (IMATINIB): 3.79
area under dose-response curve [1]: 3.06
area under dose-response curve (BMN-673): 2.62
area under dose-response curve (NILOTINIB): 3.93

HS578T BREAST
surviving fraction (BLEOMYCIN; 0.5 nM): 0.759 ± 0.12
surviving fraction (BLEOMYCIN; 1 nM): 0.774 ± 0.11
surviving fraction (BLEOMYCIN; 5 nM): 0.842 ± 0.043
surviving fraction (BLEOMYCIN; 10 nM): 0.783 ± 0.071
surviving fraction (BLEOMYCIN; 50 nM): 0.746 ± 0.074
surviving fraction (BLEOMYCIN; 100 nM): 0.596 ± 0.1
surviving fraction (BLEOMYCIN; 500 nM): 0.364 ± 0.021
surviving fraction (BLEOMYCIN; 1000 nM): 0.359 ± 0.033
surviving fraction (CABOZANTINIB; 0.5 nM): 0.931 ± 0.14
surviving fraction (CABOZANTINIB; 1 nM): 0.97 ± 0.1
surviving fraction (CABOZANTINIB; 5 nM): 0.786 ± 0.087
surviving fraction (CABOZANTINIB; 10 nM): 1.12 ± 0.087
surviving fraction (CABOZANTINIB; 50 nM): 1.04 ± 0.08
surviving fraction (CABOZANTINIB; 100 nM): 1.2 ± 0.049
surviving fraction (CABOZANTINIB; 500 nM): 1.06 ± 0.075
surviving fraction (CABOZANTINIB; 1000 nM): 0.998 ± 0.099
area under dose-response curve (IMATINIB): 3.7
area under dose-response curve [1]: 2.54
area under dose-response curve (BMN-673): 2.94
area under dose-response curve (NILOTINIB): 2.81

HCC38 BREAST
surviving fraction (BLEOMYCIN; 0.5 nM): 0.725 ± 0.19
surviving fraction (BLEOMYCIN; 1 nM): 0.725 ± 0.085
surviving fraction (BLEOMYCIN; 5 nM): 0.793 ± 0.22
surviving fraction (BLEOMYCIN; 10 nM): 0.776 ± 0.18
surviving fraction (BLEOMYCIN; 50 nM): 0.91 ± 0.23
surviving fraction (BLEOMYCIN; 100 nM): 0.781 ± 0.11
surviving fraction (BLEOMYCIN; 500 nM): 0.697 ± 0.14
surviving fraction (BLEOMYCIN; 1000 nM): 0.498 ± 0.046
surviving fraction (CABOZANTINIB; 0.5 nM): 1.07 ± 0.1
surviving fraction (CABOZANTINIB; 1 nM): 1.14 ± 0.12
surviving fraction (CABOZANTINIB; 5 nM): 1.38 ± 0.22
surviving fraction (CABOZANTINIB; 10 nM): 1.34 ± 0.23
surviving fraction (CABOZANTINIB; 50 nM): 1.13 ± 0.074
surviving fraction (CABOZANTINIB; 100 nM): 1.24 ± 0.067
surviving fraction (CABOZANTINIB; 500 nM): 1.22 ± 0.1
surviving fraction (CABOZANTINIB; 1000 nM): 1.34 ± 0.15
area under dose-response curve [1]: 2.59
area under dose-response curve (BMN-673): 2
area under dose-response curve (NILOTINIB): 2.77
